ChEMBL document CHEMBL1201862, “PubChem BioAssay data set” (2004)
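Results reflect a 48-hour exposure of cells in 96-well plates to compound at five concentrations. GI50 marks 50% less growth.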 Calls of active or inactive are those of the source. Rule as the data show it: active = GI50 up to about 1.1 µM and inactive = higher. Where a SMILES comes first, the peptide text is derived from it. The star is where a group is joined. Boc = CC(C)(C)OC(=O)*; OSu = O=C1CCC(=O)N1O*

Key:
Experiment in all cases: NCI anticancer screen, dose series, 48 h
LOX IMVI = system: LOX IMVI
Malme-3M = system: Malme-3M
SK-MEL-2 = system: SK-MEL-2
SN12C = system: SN12C
SR = system: SR
HOP-62 = system: HOP-62
HOP-92 = system: HOP-92
OVCAR-4 = system: OVCAR-4
OVCAR-3 = system: OVCAR-3
HT-29 = system: HT-29
OVCAR-8 = system: OVCAR-8
K562 = system: K562
SK-MEL-5 = system: SK-MEL-5
HCT-116 = system: HCT-116
SK-OV-3 = system: SK-OV-3
SF-295 = system: SF-295
PC-3 = system: PC-3
DU-145 = system: DU-145
MCF7 = system: MCF7
BT-549 = system: BT-549

SMILES	GI50 (LOX IMVI)	GI50 (Malme-3M)	GI50 (SK-MEL-2)	GI50 (SN12C)	GI50 (SR)	GI50 (HOP-62)	GI50 (HOP-92)	GI50 (OVCAR-4)	GI50 (OVCAR-3)	GI50 (HT-29)	GI50 (OVCAR-8)	GI50 (K562)	GI50 (SK-MEL-5)	GI50 (HCT-116)	GI50 (SK-OV-3)	GI50 (SF-295)	GI50 (PC-3)	GI50 (DU-145)	GI50 (MCF7)	GI50 (BT-549)
O=C1NC2(CCCCCC2)C2CCCCCCC12O (stereo unspecified)	> 100 µM (inactive)	> 100 µM (inactive)	> 100 µM (inactive)	> 100 µM (inactive)	> 100 µM (inactive)	> 100 µM (inactive)	> 100 µM (inactive)	> 100 µM (inactive)	> 100 µM (inactive)	> 100 µM (inactive)	> 100 µM (inactive)	> 100 µM (inactive)	> 100 µM (inactive)	> 100 µM (inactive)	> 100 µM (inactive)	> 100 µM (inactive)				
CC(C)C(NC(=O)C(Cc1ccccc1)NC(=O)[C@H]1CCC[C@H]1NC(=O)C(Cc1ccc(OC(C)(C)C)cc1)NC(=O)OC(C)(C)C)C(N)=O (stereo partly specified)	15.6 µM (inactive)	> 10 µM (inactive)	26 µM (inactive)	18.2 µM (inactive)	34.9 µM (inactive)	16.6 µM (inactive)	21.8 µM (inactive)	19.4 µM (inactive)	25.1 µM (inactive)	21.5 µM (inactive)	16.6 µM (inactive)	17.8 µM (inactive)	9.95 µM (inactive)	17.3 µM (inactive)	17.9 µM (inactive)	17.3 µM (inactive)	17.8 µM (inactive)	54.2 µM (inactive)	19.8 µM (inactive)	
COc1cc2c(cc1OC)CC(=O)Nc1cc(OC)c(OC)cc1CC2	> 82.4 µM (inactive)	20.8 µM (inactive)	79.8 µM (inactive)	45.9 µM (inactive)	5.74 µM (inactive)	55.2 µM (inactive)	> 80.9 µM (inactive)	> 53.5 µM (inactive)	43.9 µM (inactive)	37 µM (inactive)	53.8 µM (inactive)	24 µM (inactive)	18.5 µM (inactive)	49 µM (inactive)	38.6 µM (inactive)	30.3 µM (inactive)				
CCCCCCCCCCCCCCCCCc1cccc(OCOCCOC)c1CO		> 100 µM (inactive)	> 100 µM (inactive)		> 100 µM (inactive)	> 100 µM (inactive)	> 100 µM (inactive)	> 100 µM (inactive)	> 100 µM (inactive)	> 100 µM (inactive)	> 100 µM (inactive)	> 100 µM (inactive)	> 100 µM (inactive)	> 100 µM (inactive)	> 100 µM (inactive)	> 100 µM (inactive)	> 100 µM (inactive)		> 100 µM (inactive)	> 100 µM (inactive)
CCC(=C(c1ccc(OCc2ccccc2)cc1)c1ccc(OCc2ccccc2)cc1)c1ccc(OC)cc1	> 100 µM (inactive)	> 100 µM (inactive)	> 100 µM (inactive)	> 100 µM (inactive)	> 100 µM (inactive)	> 100 µM (inactive)	> 100 µM (inactive)	> 100 µM (inactive)	> 100 µM (inactive)	> 100 µM (inactive)	> 100 µM (inactive)	> 100 µM (inactive)	> 100 µM (inactive)	> 100 µM (inactive)	> 100 µM (inactive)	> 100 µM (inactive)				
c1ccc(-c2nnn3c2NC2=C(CCCC2)C3c2ccccc2)cc1 (stereo unspecified)	13.7 µM (inactive)		16.2 µM (inactive)	21.1 µM (inactive)	13.5 µM (inactive)	16.4 µM (inactive)			18.4 µM (inactive)	15.1 µM (inactive)	2.06 µM (inactive)	10.3 µM (inactive)	14.2 µM (inactive)	12 µM (inactive)	22.1 µM (inactive)	20.7 µM (inactive)	16.9 µM (inactive)	17.7 µM (inactive)	17.1 µM (inactive)	
O=S(=O)(O)c1c(/N=N/c2c(O)ccc3ccccc23)ccc2ccccc12	> 100 µM (inactive)	55.1 µM (inactive)	> 100 µM (inactive)	> 100 µM (inactive)	> 100 µM (inactive)	> 100 µM (inactive)	> 100 µM (inactive)	> 100 µM (inactive)	> 100 µM (inactive)	> 100 µM (inactive)	> 100 µM (inactive)	> 100 µM (inactive)	> 100 µM (inactive)	> 100 µM (inactive)	79.8 µM (inactive)	> 100 µM (inactive)	> 100 µM (inactive)	> 100 µM (inactive)		> 100 µM (inactive)
O=c1[nH]c(=O)n(C2OC(CO)C(O)C2O)cc1OCc1ccccc1 (stereo unspecified)	> 31.6 µM (inactive)	> 100 µM (inactive)	> 100 µM (inactive)	> 100 µM (inactive)	> 50.1 µM (inactive)	> 100 µM (inactive)	> 100 µM (inactive)	> 100 µM (inactive)	> 100 µM (inactive)	> 100 µM (inactive)	> 77.6 µM (inactive)	> 73.3 µM (inactive)	> 100 µM (inactive)	> 63.4 µM (inactive)	> 100 µM (inactive)	> 100 µM (inactive)				
COc1ccc(C2=Nc3ccccc3N=C(SC)C2)cc1	16.9 µM (inactive)	> 100 µM (inactive)	21.8 µM (inactive)	66.7 µM (inactive)	25.3 µM (inactive)	> 100 µM (inactive)	15.6 µM (inactive)	48.5 µM (inactive)	54.1 µM (inactive)	38.5 µM (inactive)	59.3 µM (inactive)	20.8 µM (inactive)	39.8 µM (inactive)	50.4 µM (inactive)	> 100 µM (inactive)	77.3 µM (inactive)				
CCc1ccc(Nc2cc(=O)n(C)c(SCc3ccccc3)n2)cc1	33 µM (inactive)	57.3 µM (inactive)	> 100 µM (inactive)	20 µM (inactive)	35.7 µM (inactive)	69.3 µM (inactive)	20.3 µM (inactive)		29.4 µM (inactive)	21.9 µM (inactive)	> 100 µM (inactive)	> 100 µM (inactive)	51.2 µM (inactive)	18.2 µM (inactive)	85.1 µM (inactive)	57.4 µM (inactive)		> 100 µM (inactive)	28.6 µM (inactive)	> 100 µM (inactive)
Cc1c2c(C#N)nccc2c(C)c2c1c1ccccc1n2Cc1ccccc1	> 100 µM (inactive)	> 100 µM (inactive)	> 100 µM (inactive)	> 100 µM (inactive)	36.1 µM (inactive)	> 100 µM (inactive)	77.8 µM (inactive)	> 100 µM (inactive)	> 100 µM (inactive)	> 100 µM (inactive)	> 100 µM (inactive)	> 100 µM (inactive)	> 100 µM (inactive)	> 100 µM (inactive)	> 100 µM (inactive)	> 100 µM (inactive)	> 100 µM (inactive)	> 100 µM (inactive)	6.49 µM (inactive)	
O=C1C(Cl)=C(NCCN2CCOCC2)C(=O)c2c(O)ccc(O)c21	1.33 µM (inactive)	1.84 µM (inactive)		1.79 µM (inactive)		1.92 µM (inactive)	2.69 µM (inactive)	1.72 µM (inactive)	2.49 µM (inactive)	2.03 µM (inactive)	3.25 µM (inactive)	2.06 µM (inactive)	1.09 µM (active)	1.55 µM (inactive)	10 µM (inactive)	1.87 µM (inactive)	2.2 µM (inactive)	1.71 µM (inactive)	1.42 µM (inactive)	2.24 µM (inactive)
O=C(C(=O)c1cc2ccccc2[nH]1)c1cc2ccccc2[nH]1	> 347 µM (inactive)	152 µM (inactive)	> 347 µM (inactive)	237 µM (inactive)	12.3 µM (inactive)	> 183 µM (inactive)	> 127 µM (inactive)	58.3 µM (inactive)	12.8 µM (inactive)	> 347 µM (inactive)	> 224 µM (inactive)	> 332 µM (inactive)	> 301 µM (inactive)	98.6 µM (inactive)	> 347 µM (inactive)	> 347 µM (inactive)				
Cc1c(Cl)cccc1NC(=O)C(=O)C1C(=O)CC(C)(C)CC1=O	> 100 µM (inactive)	> 100 µM (inactive)	> 100 µM (inactive)	> 100 µM (inactive)	> 100 µM (inactive)	> 100 µM (inactive)	> 100 µM (inactive)	> 100 µM (inactive)	> 100 µM (inactive)	> 100 µM (inactive)	> 100 µM (inactive)	> 100 µM (inactive)	> 100 µM (inactive)	> 100 µM (inactive)	> 100 µM (inactive)	> 100 µM (inactive)				
CC(C)(C)OC(=O)NC(Cc1ccc(O)cc1)C(=O)NC(CCCCN)C(=O)NC(Cc1ccc(O)cc1)C(=O)NC(CCCCN)C(=O)ON1C(=O)CCC1=O (stereo unspecified) (Boc-YKYK-OSu; configuration not given here)		> 100 µM (inactive)	> 100 µM (inactive)	> 100 µM (inactive)	> 100 µM (inactive)	> 100 µM (inactive)	> 100 µM (inactive)			89.3 µM (inactive)	> 100 µM (inactive)	> 100 µM (inactive)	> 100 µM (inactive)	> 100 µM (inactive)			> 100 µM (inactive)		> 100 µM (inactive)	> 100 µM (inactive)
OC1NC2CC3NC(O)C(O)NC3CC2NC1O (stereo unspecified)	> 100 µM (inactive)	> 100 µM (inactive)	> 100 µM (inactive)	> 100 µM (inactive)	> 100 µM (inactive)	> 100 µM (inactive)	> 100 µM (inactive)	> 100 µM (inactive)	> 100 µM (inactive)	> 100 µM (inactive)	> 100 µM (inactive)	> 100 µM (inactive)	> 100 µM (inactive)	> 100 µM (inactive)	> 100 µM (inactive)	> 100 µM (inactive)	> 100 µM (inactive)	> 100 µM (inactive)	> 100 µM (inactive)	
